According to US12251410B2, “Anticancer trail-targeted plant virus particles” (CASE WESTERN RESERVE UNIVERSITY, priority 2017, dated 2025):
“Also recorded” adds a separate entry of the source.

Tests used:
[1] = test system: MDA-MB-231 triple negative breast cancer cell line; test: MTT cytotoxicity assay, MDA-MB-231; format: cell-based; settings: 12 h incubation, normalized to TRAIL, GraphPad Prism
Method: (§1) Herein, a panel of triple negative breast cancer (TNBC) cell lines, MDA-MB-231, HCC-38, and BT-549, were used.
(§2) Triple negative breast cancer cell lines MDA-MB-231, HCC-38, and BT-549 cell lines (provided by Prof. Ruth Keri, Case Western Reserve University) and HER-2 amplified breast cancer cell line SK-BR-3 (ATCC). MDA-MB-231, HCC-38, BT-549, and SK-BR-3 were cultured in Dulbecco's modified Eagle's medium (DMEM) and Roswell Park Memorial Institute (RPMI) 1640 medium without or with insulin (0.023 IU/mL final concentration), and McCoy's 5A medium, respectively. All media were supplemented with 10% (v/v) fetal bovine serum (FBS) and 1% (v/v) penicillin/streptomycin. All cells were maintained at 37° C. and 5% CO2.
(§3) Cells (MDA-MB-231, HCC-38, BT-549, and SK-BR-3) were seeded at 5,000 cells per well in culture medium in 96-well plates 1 day prior to treatment. […] Samples were prepared in triplicate and each assay was performed at least twice. […] Following incubation, cells were washed with PBS, pH 7.4 and fresh medium was replenished; then 10 μL MTT reagent was added as per manufacturer's instructions. Absorbance was determined using the Tecan infinite-M200 plate reader.

[2] = test system: HCC-38 cell line (TNBC); test: MTT cytotoxicity assay, HCC-38; format: cell-based; settings: 12 h incubation, normalized to TRAIL, GraphPad Prism
Method: as §1, §2, §3

[3] = test system: BT-549 cell line (TNBC); test: MTT cytotoxicity assay, BT-549; format: cell-based; settings: 12 h incubation, normalized to TRAIL, GraphPad Prism
Method: as §1, §2, §3

[4] = test system: SK-BR-3, HER2-amplified breast cancer cell line; test: MTT cytotoxicity assay, SK-BR-3; format: cell-based; settings: HER-2 amplified breast cancer cell line
Method: Data are expressed as means±SD.
as §1, §2, §3

[5] = test system: caspase-8; test: Caspase-Glo 8 assay in MDA-MB-231 cells; format: cell-based; settings: 20 ng/mL HisTRAIL, 3 h
From the text: (§4) TRAIL-DR4/5 receptor binding activates caspase-dependent apoptosis. Specifically, TRAIL-DR4/5 receptor binding induces receptor oligomerization, followed by the recruitment of FAS-associated protein with death domain (FADD) and pro-caspase-8 to form a functional death-inducing signaling complex (DISC) at the plasma membrane. Subsequently, caspase-8 is activated and released into the cytosol, where it cleaves and activates caspase-3 or -7 to execute the apoptosis in cancer cells (FIG. 4). […] The drugs were incubated with MDA-MB-231 cells for 3 h before adding reagents from Caspase-Glo 8 and Caspase-Glo 3/7 Assay Kit. The assay was performed as per manufacturer's instructions.
(§5) Determination of levels of activated caspase-8 and caspase-3/7 MDA-MB-231 cells were seeded at 5,000 cells per well in a white-walled 96-well luminometer microplate one day prior to treatment. […] Non-treated cells were used as control. Samples were prepared in triplicate. Caspase-Glo 8 assay kit and Caspase-Glo 3/7 assay kit (Promega) were used to determine the level of activated caspases. Briefly, the reagent causes cell lysis, followed by caspase cleavage of the substrate and aminoluciferin which produces a luminescent signal in the presence of luciferase and ATP from the kit. Luminescence was read by the Tecan infinite-M200 plate reader to determine the proportional activated level of caspase 8- and 3/7.

[6] = test system: caspase-3/7; test: Caspase-Glo 3/7 assay in MDA-MB-231 cells; format: cell-based; settings: 20 ng/mL HisTRAIL, 3 h
From the text: as §4, §5

[7] = test system: subcutaneous MDA-MB-231 tumors; test: Treatment of MDA-MB-231 xenografts in athymic nude mice; format: in vivo, mouse
Method: FIGS. 3(A-C) are graphs and images illustrating treatment of MDA-MB-231 xenografts in an athymic nude mouse model. 6-week-old female NCR nu/nu mice were injected subcutaneously into the right flank with 2×10^6 cells; treatment began when tumor volume reached 100-150 mm^3, approximately 2 weeks after tumor cell inoculation. […] 20 μL PBS or corresponding particle amount of PVXNi were injected as controls. Tumor volume was normalized at the initial day. Data were expressed as expressed as means+SD. (A) Tumor growth curve during treatment. (B) Tumor volume distribution in each group during treatment. (C) Representative of isolated tumor tissues after treatment.
Treatment started when the tumor volume reached 100-150 mm^3. […] While we envision systemic administration for clinical applications, we started here by evaluating intratumoral treatments to focus on the question as to whether PVX-delivered HisTRAIL would outperform free HisTRAIL; the intratumoral treatment allows one to precisely control and match the dosing, and, thus, eliminates confounding factors from varying biodistribution. […]
The animal study was carried using an IACUC-approved protocol. […] Tumors were measured daily and the volume was calculated using the formula v=(l×w^2)/2, where l is the length and w is the width of tumor. […] All results are expressed as means±SD, calculated by GraphPad Prism. […]

[8] = background statement; cited from earlier work

Substance	IC50 values, MDA-MB-231 [1] [µg/mL]	IC50 values, MDA-MB-231 ([1]; listed as HiTRAIL) [µg/mL]	IC50 values, HCC-38 [2] [µg/mL]	IC50 values, BT-549 [3] [µg/mL]	cell killing / apoptosis induction in SK-BR-3 [4]	level of caspase 8, increase compared to PBS control [5] [fold]	caspase 3/7 increase vs. PBS controls [6] [fold]	average relative tumor volume increase vs. starting volume ([7]; day 30 post first treatment, intratumoral every 2 days, 5 μg His-TRAIL/injection (PVX-Ni at corresponding particle amount)) [fold]	tumor growth inhibition (in words) ([7]; intratumoral, athymic nude mice with MDA-MB-231 tumors, vs PBS control)	potency compared to cisplatin, carboplatin and oxalatoplatin [8] [×]
HisTRAIL: Recombinant human TRAIL (aa 114-281) with N-terminal His-tag and thrombin cleavage sequence, expressed in ClearColi BL21(DE)3	0.0866	0.0868	0.3672	0.543	Neither PVX-HisTRAIL nor HisTRAIL did induce apoptosis; also recorded: did not show cell killing efficacy	1.38	1.5	2.53	effective inhibition	–
phenanthriplatin	–	–	–	–	–	–	–	–	–	40
